In US20200369996A1, “Bioreactor Screening Platform for Modelling Human Systems Biology and for Screening for Inotropic Effects of Agents on the Heart” (NOVOHEART LIMITED, priority 2017, published 2020):
“Also recorded” adds a separate entry of the source. Where two headings read alike, the source gives them in different places.

Key:
[1] = system: human ventricular cardiac organoid chamber (hvCOC); assay: hvCOC second tier screening: contractile (pump) function; assay type: cell-based
Excerpt: The initial steps of hvCOC fabrication are identical to that described above for hvCTS generation, from the dissociation of cell clusters to the preparation of the cells/collagen/Matrigel mix with 1 million cells/ml of human dermal fibroblasts.
To create the chamber, we followed a procedure similar to a published procedure^29, incorporated herein by reference. Briefly, the top of a 3×3×6 cm polystyrene bioreactor was modified to permit 9-gauge hypodermic tubing (Small Parts) to pass through the center and 4 mm diameter graphite electrodes (GraphiteStore) to flank the chamber on the edges of the bioreactor. A 6-Fr silicone balloon Foley catheter (Cook Medical), with the tip cut off and sealed with silicone caulking, was threaded through the 9-Gauge tubing into the center of the bioreactor. A small ring cut from hydrophilic porous polyethylene (Fisher Scientific) was placed just above the balloon on the hypodermic tubing.
The balloon was filled with distilled water to the desired chamber size and positioned concentrically within a 2% agarose mold created in phosphate-buffered saline (PBS) and made by inserting a 13 mm diameter test tube (VWR) into the center of the agarose. The agarose mold forms the outer mold boundary while the catheter balloon forms the inner boundary. […]

[2] = system: human ventricular cardiac tissue strips (hvCTS); assay: hvCTS drug screening: twitch force under electrical pacing; assay type: cell-based; conditions: Homo sapiens
Description: One of ordinary skill in the art will recognize that the gels can be formed in any of a variety of sizes and shapes, and the molds used to form such gels can also be formed in any of a variety of sizes and shapes, depending on the intended use of the molded gel. The molded mixtures were then bathed with culture medium (DMEM supplemented with 10% newborn calf serum), and maintained in culture with daily half-medium exchanges. Inserts in the casting molds were removed at 48 hours, yielding a self-assembled hvCTS held between 0.5-mm-diameter circular PDMS posts at each end. It is apparent that the posts can be formed from any flexible material amenable to at least one form of sterilization are suitable. As noted above, the whole mold can be scaled up or down depending on the application, and the posts can also be scaled up or down. In general, the height of the posts would be similar to the height of a well (e.g., about 6 mm in an exemplary embodiment). Any of a wide variety of cross-sectional shapes is contemplated as being suitable for use in the system, apparatus and methods according to the disclosure. At 7 days after hvCTS creation, the hvCTS were used for drug screening.
Initially, pharmacological compounds were prepared for screening. Compounds for unblinded “open label” screening were purchased from Sigma and stock solutions at the highest possible concentrations were prepared according to the product information. Working concentrations over a 5-logarithmic range were prepared for each drug.
Working concentrations over a 5-logarithmic range were prepared for each drug according to the dose-range recommendation provided by the supplier.
New born calf serum containing medium was replaced with DMEM high glucose with HEPES without phenol red for optical measurement of generated force in hvCTS. […] The integrated flexible PDMS posts were used as force sensors, with the post deflection captured in real-time with a high-speed camera (100 frames/s) and LabView software (National Instruments, Austin, Tex., USA), applying a beam-bending equation from elasticity theory to calculate twitch force, as described previously^[2] and incorporated herein by reference. These measurements were obtained with the hvCTS maintained in the original molds where they were created with the hvCTS bathed in culture medium at 37° C. For each drug, force generated in response to 9 doses were measured with the drugs added to the hvCTS at half log increments in a cumulative manner. For each dose, the force generated at 0 Hz, 0.5 Hz, 1 Hz, 1.5 Hz and 2 Hz electrical pacing with field electrodes were measured.
Data analysis. Data were calculated and analyzed by a customized MatLab program. Force frequency curves for each drug were generated by plotting the generated force at 0.5 Hz, 1 Hz, 1.5 Hz and 2 Hz at different concentrations. All forces were normalized to the generated force at 0.5 Hz at the drug-free baseline condition (100%).
[…] The force generated under drug-free baseline condition was defined as 100%. The force generated at each drug concentration was then normalized to the generated force under the cognate drug-free baseline condition. The EC50 of each tested drug was estimated by fitting to a four-parameter dose-response equation given as: Y=Bottom+(Top-Bottom)/(1+10^((Log EC^50^−X)*HillSlope)), using commercial software (GraphPad Software Inc.). X is the logarithm of drug concentrations; […]; Top and Bottom are the Y values of the top and bottom plateaus of the curve itself; Baseline is the Y value that defines 0%—maximal inhibition by a standard drug. Hill Slope quantifies the steepness of the dose-response curve (the higher the Hill Slope, the steeper the curve).

EHT from hiPSC-CMs = conditions: drug screening with EHT from hiPSC-CMs; ref [3]; cited from earlier work
[3] = system: non-failing human myocardium; conditions: ref [18]; cited from earlier work
[4] = system: sheep cardiac Purkinje fibers; conditions: ref [19]; cited from earlier work
hECT = hECT in muscle bath; ref [28]; cited from earlier work
[5] = system: human right atrial trabeculae; conditions: ref [21]; cited from earlier work

In the case of `CC(C)NCC(O)c1ccc(O)c(O)c1` (stereo not shown) [Isoproterenol], the Emax at 10 µM ([1]; Homo sapiens, 10 μM isoproterenol, hvCOC, read-out: maximal effect, pressure) is reported as 132%, the “effect on hvCOC function” value ([1]; stroke volume/stroke work, cardiac output, developed pressure) is reported as “concentration-dependent increase in stroke volume, cardiac output, and developed pressure; also recorded: increase in stroke work, cardiac output and pressure volume loop” and the EC50 ([2]; 0.5 Hz pacing, Example 2 / FIG. 2C, read-out: EC50, developed contractile force) is reported as 0.039 µM. For the same compound, the EC50 ([2]; 1 Hz pacing, Example 2, read-out: EC50, developed contractile force) was 0.059 µM, the EC50 ([2]; 1 Hz pacing, unblinded screening, Example 3, read-out: EC50, developed contractile force) was 0.15 µM and the EC50 ([2]; 1.5 Hz pacing, Example 2, read-out: EC50, developed contractile force) was 0.054 µM. It also gave an EC50 ([2]; 2 Hz pacing, Example 2 / FIG. 2C, read-out: EC50, developed contractile force) of 0.031 µM, an EC50 ([2]; Unblinded, 1 Hz pacing, read-out: -log EC50 in hvCTS (converted)) of 0.148 µM and an EC50 ([2]; Unblinded, 1 Hz pacing, read-out: EC50 in hvCTS (in brackets)) of 0.15 µM. For the same compound, the EC50 ([2]; across pacing frequencies 0.5-2 Hz, FIG. 2C, read-out: EC50 with increasing pacing frequency) was 0.031 to 0.059 µM, the Emax at 10 µM ([2]; 10 μM isoproterenol, hvCTS, read-out: maximal effect) was 113% and the relevant concentration (EHT from hiPSC-CMs) was 5.4 nM [3], drug screening with EHT from hiPSC-CMs. For the same compound, the relevant concentration [3] was 0.8 μM [18], non-failing human myocardium.

In the case of `CCN(CC)CC(=O)Nc1c(C)cccc1C` [Lidocaine], the “concentration with negative inotropic effect” value [4] is given as 20 μM, [19] negative inotropic effect in sheep, the IC50 ([2]; 1 Hz pacing, blinded screening, Example 4, read-out: IC50, developed contractile force) is given as 0.44 µM and the EC50 ([2]; Blinded, 1 Hz pacing, read-out: -log EC50 in hvCTS (converted)) is given as 437 µM. For the same compound, the EC50 ([2]; Blinded, 1 Hz pacing, read-out: EC50 in hvCTS (in brackets)) was 439 µM.

In the case of `COc1ccc(CCN(C)CCCC(C#N)(c2ccc(OC)c(OC)c2)C(C)C)cc1OC` (stereo not shown) [Verapamil], the relevant concentration (hECT) is given as 0.61 μM [28], hECT in muscle bath and the IC50 [5] is given as 0.123 µM.
